Results from ChEMBL document CHEMBL5360608 (ACS Med Chem Lett, 2023).
Activity calls are given as the source filed them. No cut-off for these calls is given here.

Key:
[1] = biological target: T1, Sodium channel protein type 9 subunit alpha (Homo sapiens, UniProt Q15858); assay: Inhibition of human Nav 1.7 expressed in HEK293T cells assessed as phasic block at 10 Hz by whole cell patch clamp assay; type: cell-based
[2] = system: Mus musculus; assay: Analgesic activity in po dosed mouse assessed as licking latency at 77 uM measured after 30 mins by hot plate test (reference value: 14.5 to 15.7 sec); type: functional; conditions: 0.5 h
[3] = biological target: T2, Sodium channel protein type 4 subunit alpha (Homo sapiens, UniProt P35499); assay: Inhibition of human Nav 1.4 expressed in HEK293T cells assessed as tonic block at 0.1 Hz by whole cell patch clamp assay; type: cell-based
[4] = biological target: T1, Sodium channel protein type 9 subunit alpha; assay: Inhibition of human Nav 1.7 expressed in HEK293T cells assessed as tonic block at 0.1 Hz by whole cell patch clamp assay; type: cell-based
[5] = system: Mus musculus; assay: Analgesic activity in po dosed mouse assessed as licking latency at 77 uM measured after 15 mins by hot plate test (reference value: 14.5 to 15.7 sec); type: functional; conditions: 0.25 h
[6] = system: Mus musculus; assay: Analgesic activity in po dosed mouse assessed as licking latency at 77 uM measured after 45 mins by hot plate test (reference value: 14.5 to 15.7 sec); type: functional; conditions: 0.75 h
[7] = system: Mus musculus; assay: Analgesic activity in po dosed mouse assessed as alterations in motor coordination at high dose by hot plate test; type: functional, organism-based
[8] = system: Mus musculus; assay: Analgesic activity in po dosed mouse assessed as licking latency at 77 uM measured after 60 mins by hot plate test (reference value: 14.5 to 15.7 sec); type: functional; conditions: 1 h
[9] = species on record: Homo sapiens; assay: Selectivity ratio of IC50 for human Nav 1.4 expressed in HEK293T cells assessed as tonic block at 0.1 Hz to IC50 for human Nav 1.4 expressed in HEK293T cells assessed as phasic block at 10 Hz; type: cell-based
[10] = biological target: T2, Sodium channel protein type 4 subunit alpha; assay: Inhibition of human Nav 1.4 expressed in HEK293T cells assessed as phasic block at 10 Hz by whole cell patch clamp assay; type: cell-based
[11] = system: Mus musculus; assay: Analgesic activity in po dosed mouse assessed as alteration in spontaneous motility at high dose by hot plate test; type: functional, organism-based
[12] = species on record: Rattus norvegicus; assay: Reduction in 9-anthracene carboxylic acid induced myotonic-like condition in Wistar rat skeletal muscle fiber by measuring electable action potential at upto 10 uM by two intracellular microelectrode current-clamp method; type: functional, tissue-based; conditions: Skeletal muscle tissue
[13] = species on record: Homo sapiens; assay: Selectivity ratio of IC50 for human Nav 1.7 expressed in HEK293T cells assessed as tonic block at 0.1 Hz to IC50 for human Nav 1.7 expressed in HEK293T cells assessed as phasic block at 10 Hz; type: cell-based
[14] = species on record: Rattus norvegicus; assay: Reduction in 9-anthracene carboxylic acid induced myotonic-like condition in Wistar rat skeletal muscle fiber by measuring electable action potential at 0.3 to 10 uM by two intracellular microelectrode current-clamp method; type: functional, tissue-based; conditions: Skeletal muscle tissue, dose 0.3-10 µM

T1 sequence (Q15858 whole entry): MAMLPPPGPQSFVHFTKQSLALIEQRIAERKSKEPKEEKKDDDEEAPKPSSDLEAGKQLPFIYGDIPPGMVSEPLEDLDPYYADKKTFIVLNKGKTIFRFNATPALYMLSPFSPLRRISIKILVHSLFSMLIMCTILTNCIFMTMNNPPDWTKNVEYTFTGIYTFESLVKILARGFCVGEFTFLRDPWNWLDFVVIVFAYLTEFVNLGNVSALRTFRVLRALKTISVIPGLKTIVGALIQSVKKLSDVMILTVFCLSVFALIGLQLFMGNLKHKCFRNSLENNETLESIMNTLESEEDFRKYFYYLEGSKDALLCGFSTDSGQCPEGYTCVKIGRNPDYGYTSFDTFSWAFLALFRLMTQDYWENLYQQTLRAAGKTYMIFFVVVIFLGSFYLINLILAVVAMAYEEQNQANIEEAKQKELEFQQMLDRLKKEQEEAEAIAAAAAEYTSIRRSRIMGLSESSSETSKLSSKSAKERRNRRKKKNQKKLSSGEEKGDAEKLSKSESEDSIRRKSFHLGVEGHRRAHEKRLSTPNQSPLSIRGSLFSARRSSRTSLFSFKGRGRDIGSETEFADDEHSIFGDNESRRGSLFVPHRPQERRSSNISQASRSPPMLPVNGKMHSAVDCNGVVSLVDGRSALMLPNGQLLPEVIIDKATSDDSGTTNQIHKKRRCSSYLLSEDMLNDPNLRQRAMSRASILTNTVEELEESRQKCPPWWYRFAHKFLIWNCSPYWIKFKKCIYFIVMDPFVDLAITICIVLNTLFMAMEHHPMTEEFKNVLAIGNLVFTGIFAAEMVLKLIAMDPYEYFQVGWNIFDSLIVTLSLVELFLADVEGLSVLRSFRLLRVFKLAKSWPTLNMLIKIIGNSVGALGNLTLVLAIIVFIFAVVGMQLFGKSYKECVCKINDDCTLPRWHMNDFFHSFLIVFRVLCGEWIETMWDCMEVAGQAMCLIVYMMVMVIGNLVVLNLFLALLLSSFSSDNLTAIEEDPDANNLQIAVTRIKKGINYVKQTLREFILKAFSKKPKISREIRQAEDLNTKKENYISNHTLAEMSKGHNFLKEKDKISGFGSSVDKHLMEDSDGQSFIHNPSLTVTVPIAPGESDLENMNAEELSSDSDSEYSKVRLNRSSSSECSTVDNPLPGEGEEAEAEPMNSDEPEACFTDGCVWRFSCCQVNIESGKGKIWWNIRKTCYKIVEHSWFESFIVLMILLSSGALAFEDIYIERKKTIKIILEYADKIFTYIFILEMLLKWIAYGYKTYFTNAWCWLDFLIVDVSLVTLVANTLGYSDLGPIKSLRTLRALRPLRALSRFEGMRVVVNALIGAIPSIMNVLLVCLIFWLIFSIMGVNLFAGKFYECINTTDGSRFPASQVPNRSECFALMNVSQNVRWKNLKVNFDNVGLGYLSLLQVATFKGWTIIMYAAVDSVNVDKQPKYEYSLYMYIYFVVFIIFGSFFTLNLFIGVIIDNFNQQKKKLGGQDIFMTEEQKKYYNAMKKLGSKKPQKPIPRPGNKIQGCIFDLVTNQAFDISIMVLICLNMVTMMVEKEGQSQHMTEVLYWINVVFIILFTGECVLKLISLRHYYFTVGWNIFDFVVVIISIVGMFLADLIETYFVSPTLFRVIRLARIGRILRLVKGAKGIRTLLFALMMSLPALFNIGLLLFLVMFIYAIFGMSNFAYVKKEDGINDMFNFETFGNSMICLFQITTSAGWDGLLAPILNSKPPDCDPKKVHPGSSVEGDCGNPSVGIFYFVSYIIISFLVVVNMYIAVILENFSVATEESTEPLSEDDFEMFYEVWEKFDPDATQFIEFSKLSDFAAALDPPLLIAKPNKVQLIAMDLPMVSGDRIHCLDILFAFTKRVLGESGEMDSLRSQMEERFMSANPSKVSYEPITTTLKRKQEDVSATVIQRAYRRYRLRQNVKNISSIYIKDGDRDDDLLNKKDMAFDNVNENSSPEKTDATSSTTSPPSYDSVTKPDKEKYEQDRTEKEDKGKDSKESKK
T2 sequence (P35499 whole entry): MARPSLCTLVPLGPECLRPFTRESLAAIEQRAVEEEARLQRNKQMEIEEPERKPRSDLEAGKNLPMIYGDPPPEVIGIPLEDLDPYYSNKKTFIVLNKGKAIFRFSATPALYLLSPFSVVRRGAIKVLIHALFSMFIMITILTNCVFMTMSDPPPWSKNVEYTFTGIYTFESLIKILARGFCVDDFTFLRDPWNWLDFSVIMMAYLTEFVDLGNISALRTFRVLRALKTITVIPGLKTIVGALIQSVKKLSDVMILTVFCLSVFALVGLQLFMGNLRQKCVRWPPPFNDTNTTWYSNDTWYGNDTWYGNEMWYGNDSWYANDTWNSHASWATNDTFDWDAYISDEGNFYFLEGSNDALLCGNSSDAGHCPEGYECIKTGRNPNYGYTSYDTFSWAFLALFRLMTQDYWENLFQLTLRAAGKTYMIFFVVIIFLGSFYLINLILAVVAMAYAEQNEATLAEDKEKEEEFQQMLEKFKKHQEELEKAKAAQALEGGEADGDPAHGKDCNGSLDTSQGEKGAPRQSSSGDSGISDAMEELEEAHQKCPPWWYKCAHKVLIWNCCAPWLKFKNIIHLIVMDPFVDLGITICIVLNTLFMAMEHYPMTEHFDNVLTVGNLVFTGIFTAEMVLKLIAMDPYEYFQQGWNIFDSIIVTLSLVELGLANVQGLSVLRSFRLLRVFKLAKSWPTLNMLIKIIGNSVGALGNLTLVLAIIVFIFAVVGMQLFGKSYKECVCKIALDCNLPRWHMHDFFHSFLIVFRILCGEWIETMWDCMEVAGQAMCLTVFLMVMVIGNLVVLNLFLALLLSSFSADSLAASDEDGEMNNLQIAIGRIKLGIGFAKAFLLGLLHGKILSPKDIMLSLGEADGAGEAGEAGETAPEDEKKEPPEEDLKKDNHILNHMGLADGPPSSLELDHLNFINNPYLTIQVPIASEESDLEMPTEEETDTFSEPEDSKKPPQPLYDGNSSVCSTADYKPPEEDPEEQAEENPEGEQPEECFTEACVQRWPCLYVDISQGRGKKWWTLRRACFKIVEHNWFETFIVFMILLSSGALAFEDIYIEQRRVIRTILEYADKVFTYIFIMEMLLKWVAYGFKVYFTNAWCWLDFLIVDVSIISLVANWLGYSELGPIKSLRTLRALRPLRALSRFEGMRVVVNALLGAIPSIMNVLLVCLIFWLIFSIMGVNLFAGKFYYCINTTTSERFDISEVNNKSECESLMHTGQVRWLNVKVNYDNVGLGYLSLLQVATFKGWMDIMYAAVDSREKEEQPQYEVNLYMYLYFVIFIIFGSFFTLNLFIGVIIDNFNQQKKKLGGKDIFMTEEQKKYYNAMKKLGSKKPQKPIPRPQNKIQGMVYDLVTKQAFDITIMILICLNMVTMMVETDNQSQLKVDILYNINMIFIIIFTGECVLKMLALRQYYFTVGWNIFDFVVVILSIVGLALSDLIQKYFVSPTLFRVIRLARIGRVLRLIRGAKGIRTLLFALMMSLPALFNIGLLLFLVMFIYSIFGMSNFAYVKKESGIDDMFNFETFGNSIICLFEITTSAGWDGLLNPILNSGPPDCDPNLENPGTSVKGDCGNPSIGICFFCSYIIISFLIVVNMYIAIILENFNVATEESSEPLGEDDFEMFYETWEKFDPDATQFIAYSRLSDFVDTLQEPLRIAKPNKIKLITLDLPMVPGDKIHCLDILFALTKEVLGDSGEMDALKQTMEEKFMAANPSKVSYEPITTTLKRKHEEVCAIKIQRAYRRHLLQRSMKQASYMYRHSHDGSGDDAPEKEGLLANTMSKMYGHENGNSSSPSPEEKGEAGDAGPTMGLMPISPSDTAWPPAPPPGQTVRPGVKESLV

Row | SMILES | IC50 [1] [µM] | Activity [2] [s] | IC50 [3] [µM] | IC50 [4] [µM] | Activity [5] [s] | Activity [6] [s] | Activity [7] | Activity [8] [s] | Ratio IC50 [9] | IC50 [10] [µM] | Activity [11] | Activity [12] | Ratio IC50 [13] | Activity [14]
1 | c1ccc(Oc2ccc3nc(N4CCNCC4)sc3c2)cc1 | 48 | 26.2 | 250 | 106 | 21.6 | 23.1 | inactive | 19.9 | 4 | 63 | inactive | inactive | 2.2 | 
2 | FC(F)(F)Oc1ccc2nc(N3CCNCC3)sc2c1 | 24 | 18.8 | 95 | 52 | 16.8 | 17.3 |  | 15.5 | 2.5 | 38 |  |  | 2.2 | 
3 | CNCCN(C)c1nc2ccc(OC(F)(F)F)cc2s1 |  | 18 |  |  | 17.8 | 16.6 |  | 16 |  |  |  |  |  | 
4 | Nc1nc2ccc(C(F)(F)F)cc2s1 |  |  | 58 |  |  |  |  |  | 1.1 | 53 |  |  |  | 
5 | CC(C)c1ccc2nc(N)sc2c1 |  |  | 118 |  |  |  |  |  | 1.3 | 89 |  |  |  | 
6 | Nc1nc2ccc(OC(F)(F)F)cc2s1 [RILUZOLE] |  | 25.6 | 63 |  | 20.5 | 24.3 | inactive | 18.3 |  | 51 | inactive |  |  | Active
